The values below come from publication PMC7581728, “Sapitinib Reverses Anticancer Drug Resistance in Colon Cancer Cells Overexpressing the ABCB1 Transporter” (Frontiers in Oncology, 2020).

pEC50: −log10 of the molar value.

As a reminder, the pEC50 is the negative decadic logarithm of the EC50, by convention in mol/L.

The target in this experiment is T1, ABCB1 (Homo sapiens, UniProt P08183).
T1 construct: ABCB1 transporter in membrane vesicles of High Five insect cells
The experiment in a line: vanadate-sensitive ATPase stimulation in ABCB1 membrane vesicles ([…] maximum); also raised [3H]-paclitaxel accumulation in SW620/Ad300 cells. The format is biochemical.

T1 sequence (P08183 whole entry): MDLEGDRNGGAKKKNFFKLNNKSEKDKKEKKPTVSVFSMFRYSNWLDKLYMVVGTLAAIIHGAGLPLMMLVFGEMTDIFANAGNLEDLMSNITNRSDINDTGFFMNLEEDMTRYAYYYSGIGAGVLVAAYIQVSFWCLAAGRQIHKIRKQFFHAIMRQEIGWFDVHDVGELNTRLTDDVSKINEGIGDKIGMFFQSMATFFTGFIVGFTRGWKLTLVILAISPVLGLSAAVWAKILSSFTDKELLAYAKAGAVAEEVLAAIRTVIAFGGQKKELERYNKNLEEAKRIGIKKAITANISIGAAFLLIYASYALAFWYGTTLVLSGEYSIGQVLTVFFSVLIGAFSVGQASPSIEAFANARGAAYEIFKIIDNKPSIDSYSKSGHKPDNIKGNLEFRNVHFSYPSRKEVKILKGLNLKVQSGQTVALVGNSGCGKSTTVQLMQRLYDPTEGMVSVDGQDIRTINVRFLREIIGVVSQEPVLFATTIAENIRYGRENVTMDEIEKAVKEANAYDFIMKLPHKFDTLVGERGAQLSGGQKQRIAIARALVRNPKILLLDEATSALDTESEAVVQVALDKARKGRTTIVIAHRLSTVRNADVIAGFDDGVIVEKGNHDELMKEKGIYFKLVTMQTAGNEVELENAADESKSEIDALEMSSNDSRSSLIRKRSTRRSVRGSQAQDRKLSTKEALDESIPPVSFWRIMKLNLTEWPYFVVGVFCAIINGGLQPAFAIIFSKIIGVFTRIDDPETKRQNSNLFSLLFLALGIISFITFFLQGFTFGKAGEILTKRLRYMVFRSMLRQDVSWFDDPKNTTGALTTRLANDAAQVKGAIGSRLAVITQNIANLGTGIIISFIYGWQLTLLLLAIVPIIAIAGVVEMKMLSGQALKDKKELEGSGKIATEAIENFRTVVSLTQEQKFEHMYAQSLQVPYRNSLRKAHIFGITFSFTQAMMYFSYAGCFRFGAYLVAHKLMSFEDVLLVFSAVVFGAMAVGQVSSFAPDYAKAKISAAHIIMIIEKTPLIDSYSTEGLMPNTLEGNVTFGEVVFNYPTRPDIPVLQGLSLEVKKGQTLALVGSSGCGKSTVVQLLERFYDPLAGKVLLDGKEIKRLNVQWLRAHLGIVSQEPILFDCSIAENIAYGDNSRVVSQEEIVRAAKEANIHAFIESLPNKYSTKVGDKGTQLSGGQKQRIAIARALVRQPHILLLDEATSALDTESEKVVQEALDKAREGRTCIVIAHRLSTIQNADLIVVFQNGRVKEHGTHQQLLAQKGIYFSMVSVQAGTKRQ

`CNC(=O)CN1CCC(Oc2cc3c(Nc4cccc(Cl)c4F)ncnc3cc2OC)CC1` [sapitinib] had a pEC50 of 5.28.
